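Five compound concentrations were applied to cells in 96-well plates for 48 hours; endpoints were derived by simple linear interpolation of the resulting dose-response curve. GI50 = concentration required for 50% inhibition of growth.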 Active and inactive are the calls of the source. Rule as the data show it: active = GI50 up to about 1.1 µM and inactive = higher.
Columns and labels:
Test in all cases: NCI-60 cell line screen, 48 h
[1] = test system: HOP-62
[2] = test system: NCI-H226
[3] = test system: CCRF-CEM
[4] = test system: NCI/ADR-RES
[5] = test system: RXF 393
[6] = test system: DU-145
[7] = test system: K562
[8] = test system: RPMI-8226
[9] = test system: MDA-MB-435
[10] = test system: SK-OV-3
[11] = test system: CAKI-1
[12] = test system: Hs-578T
[13] = test system: NCI-H522
[14] = test system: SNB-19
[15] = test system: UACC-62
[16] = test system: SN12C
[17] = test system: U-251
[18] = test system: HOP-92
[19] = test system: IGROV-1
[20] = test system: LOX IMVI
[21] = test system: HT-29
[22] = test system: TK-10
[23] = test system: BT-549
[24] = test system: SNB-75
[25] = test system: NCI-H23
[26] = test system: SK-MEL-5
[27] = test system: 786-0
[28] = test system: MDA-MB-231
[29] = test system: SK-MEL-28
[30] = test system: HCT-15
[31] = test system: M14
[32] = test system: Malme-3M
[33] = test system: OVCAR-5
[34] = test system: PC-3
[35] = test system: EKVX
[36] = test system: MOLT-4
[37] = test system: MDA-N
[38] = test system: OVCAR-3
[39] = test system: OVCAR-4
[40] = test system: A549
[41] = test system: UACC-257
[42] = test system: ACHN
[43] = test system: SF-295
[44] = test system: A498
[45] = test system: HCT-116
[46] = test system: KM12
[47] = test system: SF-268
[48] = test system: UO-31
[49] = test system: SK-MEL-2
[50] = test system: COLO 205
[51] = test system: T47D
[52] = test system: OVCAR-8
[53] = test system: SW-620
[54] = test system: SR
[55] = test system: NCI-H460
[56] = test system: HCC 2998
[57] = test system: HL-60
[58] = test system: SF-539
[59] = test system: MCF7

Measured: GI50

COc1ccc(/C=N/Nc2nnc3c(n2)c2ccccc2c2nn(-c4ccccc4Cl)nc23)cc1
> 100 µM: [30]
inactive: [1] > 100 µM | [2] > 100 µM | [3] > 100 µM | [4] > 100 µM | [5] > 100 µM | [6] > 100 µM | [7] > 100 µM | [8] > 100 µM | [9] > 100 µM | [10] > 100 µM | [11] > 100 µM | [12] 71.6 µM | [13] > 100 µM | [14] > 100 µM | [15] > 100 µM | [16] > 100 µM | [17] > 100 µM | [18] > 100 µM | [19] > 100 µM | [20] > 100 µM | [21] > 100 µM | [22] > 100 µM | [23] > 100 µM | [24] > 100 µM | [25] > 100 µM | [26] > 100 µM | [27] > 100 µM | [28] > 100 µM | [29] > 100 µM | [31] > 100 µM | [32] > 100 µM | [33] > 100 µM | [34] > 100 µM | [35] > 100 µM | [36] > 100 µM | [37] > 100 µM | [38] > 100 µM | [39] > 100 µM | [40] > 100 µM | [41] > 100 µM | [42] > 100 µM | [43] > 100 µM | [44] > 100 µM | [45] > 100 µM | [46] > 100 µM | [47] > 100 µM | [48] > 100 µM | [49] > 100 µM | [50] > 100 µM | [51] > 100 µM | [52] > 100 µM | [53] > 100 µM

O=C1NC(Nc2cccc(Cl)c2)=N/C1=C\c1ccc(Cl)c(Cl)c1
inactive: [1] 8.79 µM | [2] 3.44 µM | [3] 3.45 µM | [4] 4.04 µM | [5] 3.21 µM | [6] 7.52 µM | [7] 3.33 µM | [8] 3.99 µM | [9] 4.85 µM | [10] 12.4 µM | [11] 4.6 µM | [12] 3.04 µM | [54] 2.82 µM | [55] 2.24 µM | [13] 2.52 µM | [56] 2.28 µM | [14] 7.74 µM | [15] 10.1 µM | [16] 2.54 µM | [17] 4.02 µM | [18] 3.48 µM | [19] 5.66 µM | [57] 1.95 µM | [20] 2.14 µM | [21] 6.73 µM | [22] 9.35 µM | [23] 12.4 µM | [24] 13.3 µM | [25] 3.44 µM | [26] 6.18 µM | [27] 3.76 µM | [29] 12.7 µM | [31] 4.42 µM | [32] 14.1 µM | [33] 7.91 µM | [34] 3.66 µM | [35] 3.67 µM | [36] 3.37 µM | [37] 4.52 µM | [38] 5.14 µM | [39] 1.9 µM | [40] 3.8 µM | [41] 8.07 µM | [58] 9.31 µM | [42] 5.05 µM | [43] 4.05 µM | [44] 4.37 µM | [45] 3.94 µM | [46] 3.37 µM | [59] 3.01 µM | [47] 4.94 µM | [48] 7.29 µM | [49] 2.44 µM | [50] 3.88 µM | [51] 3.52 µM | [52] 4.34 µM | [53] 3.68 µM
5.28 µM: [30]
